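Five concentrations, 48 hours, 96-well plates. GI50 = concentration required for 50% inhibition of growth.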 Activity calls are given as the source filed them. No stated cut-off is given here; in the data, active = GI50 up to about 1.1 µM and inactive = higher.
Columns and labels:
Assay in all cases: NCI-60 cell line screen, 48 h
HOP-62 = tested on: HOP-62
SK-MEL-28 = tested on: SK-MEL-28
COLO 205 = tested on: COLO 205
M14 = tested on: M14
SW-620 = tested on: SW-620
IGROV-1 = tested on: IGROV-1
RXF 631 = tested on: RXF 631
A549 = tested on: A549
OVCAR-3 = tested on: OVCAR-3
HCT-116 = tested on: HCT-116
RPMI-8226 = tested on: RPMI-8226
SK-MEL-2 = tested on: SK-MEL-2
HT-29 = tested on: HT-29
OVCAR-4 = tested on: OVCAR-4
SNB-19 = tested on: SNB-19
MOLT-4 = tested on: MOLT-4
SF-295 = tested on: SF-295
HL-60 = tested on: HL-60
LXFL 529 = tested on: LXFL 529
NCI-H226 = tested on: NCI-H226
XF498 = tested on: XF498
UACC-62 = tested on: UACC-62
HCT-15 = tested on: HCT-15
NCI-H522 = tested on: NCI-H522
OVCAR-8 = tested on: OVCAR-8
KM12 = tested on: KM12
HCC 2998 = tested on: HCC 2998
DMS-273 = tested on: DMS-273
DLD-1 = tested on: DLD-1
M19-MEL = tested on: M19-MEL
SF-539 = tested on: SF-539
Malme-3M = tested on: Malme-3M
EKVX = tested on: EKVX
SN12C = tested on: SN12C
K562 = tested on: K562
SNB-75 = tested on: SNB-75
SF-268 = tested on: SF-268
UO-31 = tested on: UO-31
SK-OV-3 = tested on: SK-OV-3
A498 = tested on: A498
NCI-H23 = tested on: NCI-H23
CCRF-CEM = tested on: CCRF-CEM
UACC-257 = tested on: UACC-257
TK-10 = tested on: TK-10
786-0 = tested on: 786-0
SR = tested on: SR
SNB-78 = tested on: SNB-78
CAKI-1 = tested on: CAKI-1
HOP-92 = tested on: HOP-92
DMS-114 = tested on: DMS-114
KM-20L2 = tested on: KM-20L2
ACHN = tested on: ACHN
OVCAR-5 = tested on: OVCAR-5
U-251 = tested on: U-251
NCI-H460 = tested on: NCI-H460
SK-MEL-5 = tested on: SK-MEL-5
LOX IMVI = tested on: LOX IMVI
HOP-18 = tested on: HOP-18
RXF 393 = tested on: RXF 393

## Cc1cc(=O)c2c([nH]1)NS(=O)(=O)NC2=O
HOP-62
  GI50: > 100 µM (inactive)
SK-MEL-28
  GI50: > 100 µM (inactive)
COLO 205
  GI50: > 100 µM (inactive)
M14
  GI50: > 100 µM (inactive)
SW-620
  GI50: > 100 µM (inactive)
IGROV-1
  GI50: > 100 µM (inactive)
RXF 631
  GI50: > 100 µM (inactive)
A549
  GI50: > 100 µM (inactive)
OVCAR-3
  GI50: > 100 µM (inactive)
HCT-116
  GI50: > 100 µM (inactive)
RPMI-8226
  GI50: > 100 µM (inactive)
SK-MEL-2
  GI50: > 100 µM (inactive)
HT-29
  GI50: > 100 µM (inactive)
OVCAR-4
  GI50: > 100 µM (inactive)
SNB-19
  GI50: > 100 µM (inactive)
MOLT-4
  GI50: > 100 µM (inactive)
SF-295
  GI50: > 100 µM (inactive)
HL-60
  GI50: > 100 µM (inactive)
LXFL 529
  GI50: > 100 µM (inactive)
NCI-H226
  GI50: > 100 µM (inactive)
XF498
  GI50: > 100 µM (inactive)
UACC-62
  GI50: > 100 µM (inactive)
HCT-15
  GI50: > 100 µM
NCI-H522
  GI50: > 100 µM (inactive)
OVCAR-8
  GI50: > 100 µM (inactive)
KM12
  GI50: > 100 µM (inactive)
HCC 2998
  GI50: > 100 µM (inactive)
DMS-273
  GI50: > 100 µM (inactive)
DLD-1
  GI50: > 100 µM (inactive)
M19-MEL
  GI50: > 100 µM (inactive)
SF-539
  GI50: > 100 µM (inactive)
Malme-3M
  GI50: > 100 µM (inactive)
EKVX
  GI50: > 100 µM (inactive)
SN12C
  GI50: > 100 µM (inactive)
K562
  GI50: > 100 µM (inactive)
SNB-75
  GI50: > 100 µM (inactive)
SF-268
  GI50: > 100 µM (inactive)
UO-31
  GI50: > 100 µM (inactive)
SK-OV-3
  GI50: > 100 µM (inactive)
A498
  GI50: > 100 µM (inactive)
NCI-H23
  GI50: > 100 µM (inactive)
CCRF-CEM
  GI50: > 100 µM (inactive)
UACC-257
  GI50: > 100 µM (inactive)
TK-10
  GI50: > 100 µM (inactive)
786-0
  GI50: > 100 µM (inactive)
SR
  GI50: > 100 µM (inactive)
SNB-78
  GI50: > 100 µM (inactive)
CAKI-1
  GI50: > 100 µM (inactive)
HOP-92
  GI50: > 100 µM (inactive)

## COc1ccc2nc(NC(=O)C(=O)CC(=O)c3ccc([N+](=O)[O-])cc3)sc2c1
HOP-62
  GI50: > 100 µM (inactive)
DMS-114
  GI50: 90.6 µM (inactive)
SK-MEL-28
  GI50: > 100 µM (inactive)
COLO 205
  GI50: > 100 µM (inactive)
M14
  GI50: > 100 µM (inactive)
SW-620
  GI50: > 100 µM (inactive)
IGROV-1
  GI50: > 100 µM (inactive)
RXF 631
  GI50: > 100 µM (inactive)
A549
  GI50: > 100 µM (inactive)
OVCAR-3
  GI50: > 100 µM (inactive)
HCT-116
  GI50: > 100 µM (inactive)
KM-20L2
  GI50: > 100 µM (inactive)
ACHN
  GI50: > 100 µM (inactive)
RPMI-8226
  GI50: > 100 µM (inactive)
OVCAR-5
  GI50: > 100 µM (inactive)
U-251
  GI50: > 100 µM (inactive)
SK-MEL-2
  GI50: > 100 µM (inactive)
HT-29
  GI50: > 100 µM (inactive)
OVCAR-4
  GI50: > 100 µM (inactive)
SNB-19
  GI50: > 100 µM (inactive)
MOLT-4
  GI50: > 100 µM (inactive)
NCI-H460
  GI50: > 100 µM (inactive)
LXFL 529
  GI50: > 100 µM (inactive)
NCI-H226
  GI50: > 100 µM (inactive)
XF498
  GI50: > 100 µM (inactive)
UACC-62
  GI50: > 100 µM (inactive)
NCI-H522
  GI50: > 100 µM (inactive)
OVCAR-8
  GI50: > 100 µM (inactive)
KM12
  GI50: > 100 µM (inactive)
HCC 2998
  GI50: > 100 µM (inactive)
DMS-273
  GI50: > 100 µM (inactive)
DLD-1
  GI50: > 100 µM (inactive)
M19-MEL
  GI50: > 100 µM (inactive)
SF-539
  GI50: > 100 µM (inactive)
Malme-3M
  GI50: > 100 µM (inactive)
EKVX
  GI50: > 100 µM (inactive)
SN12C
  GI50: > 100 µM (inactive)
K562
  GI50: > 100 µM (inactive)
SNB-75
  GI50: > 100 µM (inactive)
SF-268
  GI50: > 100 µM (inactive)
UO-31
  GI50: 50.7 µM (inactive)
SK-OV-3
  GI50: > 100 µM (inactive)
A498
  GI50: > 100 µM (inactive)
NCI-H23
  GI50: > 100 µM (inactive)
CCRF-CEM
  GI50: > 100 µM (inactive)
UACC-257
  GI50: > 100 µM (inactive)
786-0
  GI50: > 100 µM (inactive)
SK-MEL-5
  GI50: > 100 µM (inactive)
CAKI-1
  GI50: > 100 µM (inactive)
HOP-92
  GI50: > 100 µM (inactive)

## O=[N+]([O-])c1ccc(Cl)c(C2CC(c3cccc4ccccc34)=Nc3ccccc3S2)c1 (configuration not stated)
HOP-62
  GI50: 55.7 µM (inactive)
DMS-114
  GI50: 20.2 µM (inactive)
SK-MEL-28
  GI50: 27.3 µM (inactive)
COLO 205
  GI50: 61.2 µM (inactive)
M14
  GI50: 20.6 µM (inactive)
SW-620
  GI50: 18.8 µM (inactive)
IGROV-1
  GI50: 48.5 µM (inactive)
LOX IMVI
  GI50: 20 µM (inactive)
RXF 631
  GI50: > 65 µM (inactive)
A549
  GI50: 28.7 µM (inactive)
OVCAR-3
  GI50: 16.3 µM (inactive)
HCT-116
  GI50: 6.68 µM (inactive)
HOP-18
  GI50: 26.9 µM (inactive)
KM-20L2
  GI50: 29.3 µM (inactive)
ACHN
  GI50: 34.1 µM (inactive)
RPMI-8226
  GI50: 2.6 µM (inactive)
OVCAR-5
  GI50: 42.1 µM (inactive)
U-251
  GI50: 20.5 µM (inactive)
SK-MEL-2
  GI50: 21.7 µM (inactive)
HT-29
  GI50: 17.3 µM (inactive)
OVCAR-4
  GI50: 20.1 µM (inactive)
SNB-19
  GI50: 44.4 µM (inactive)
MOLT-4
  GI50: 6.75 µM (inactive)
SF-295
  GI50: 23.9 µM (inactive)
NCI-H460
  GI50: 26.5 µM (inactive)
HL-60
  GI50: 5.21 µM (inactive)
LXFL 529
  GI50: 18.5 µM (inactive)
NCI-H226
  GI50: 27.6 µM (inactive)
UACC-62
  GI50: 15.4 µM (inactive)
HCT-15
  GI50: 15.2 µM
NCI-H522
  GI50: 14.3 µM (inactive)
OVCAR-8
  GI50: 12.9 µM (inactive)
KM12
  GI50: 20.2 µM (inactive)
HCC 2998
  GI50: 69 µM (inactive)
DMS-273
  GI50: 20.4 µM (inactive)
DLD-1
  GI50: 13.2 µM (inactive)
M19-MEL
  GI50: 20.2 µM (inactive)
SF-539
  GI50: 20.6 µM (inactive)
Malme-3M
  GI50: > 54.8 µM (inactive)
EKVX
  GI50: 70.8 µM (inactive)
SN12C
  GI50: 21 µM (inactive)
K562
  GI50: 6.31 µM (inactive)
SNB-75
  GI50: 0.195 µM (active)
SF-268
  GI50: 18.7 µM (inactive)
UO-31
  GI50: 18.4 µM (inactive)
SK-OV-3
  GI50: > 84.7 µM (inactive)
RXF 393
  GI50: 8.91 µM (inactive)
A498
  GI50: > 45.2 µM (inactive)
NCI-H23
  GI50: 11.4 µM (inactive)
CCRF-CEM
  GI50: 3.43 µM (inactive)
UACC-257
  GI50: 31.6 µM (inactive)
TK-10
  GI50: 41 µM (inactive)
786-0
  GI50: 12.4 µM (inactive)
SR
  GI50: 3.58 µM (inactive)
SK-MEL-5
  GI50: 16.7 µM (inactive)
SNB-78
  GI50: 26.5 µM (inactive)
CAKI-1
  GI50: 21.9 µM (inactive)
HOP-92
  GI50: 2.64 µM (inactive)

— ChEMBL document CHEMBL1201862, “PubChem BioAssay data set” (2004)
